Earlier results in patent US20080254098A1, “Neural tube birth defect reduction with folic acid delivery in catamenial hygiene products” (priority 2007, published 2008).

What was measured:
[1] = basis of the recommended daily intake of 2 mcg to 3 mcg
[2] = red blood cell folate
[3] = Norway; daily folic acid supplements of 0.4 mg or more

Molecule | absorption rate [1] [%] | biological half-life [2] | reduction of risk of cleft lip, with or without cleft palate [3] [%] | births with neural tube defects (Nova Scotia, Canada, 1998-2000, after fortification began in 1998, 2.58 per 1000 in 1991-1997 before it) | percent of women with one previous neural tube defect pregnancy who had a lower risk of another child with this birth defect (Wald 1991, prescription doses of folic acid versus placebo) [%] | reduction of incidence of neural tube defects by adequate supplementing with folic acid (current estimate, depends on local dietary habits and ethnicity)
cyanocobalamin [vitamin B12] | 50 |  |  |  |  | 
Nc1nc2ncc(CNc3ccc(C(=O)N[C@@H](CCC(=O)O)C(=O)O)cc3)nc2c(=O)[nH]1 [folic acid] |  | approximately 8 weeks | 40 | 1.17 per 1,000 | 72 | 50%-70%
